Laboratory results taken from patent publication EP4722213A1, “NITROGEN-CONTAINING FUNCTIONAL GROUP-SUBSTITUTED PYRIDAZINOPYRIDONE DERIVATIVE AND USE THEREOF” (Sichuan Huiyu Pharmaceutical Co., Ltd., priority 2023, dated 2024).

Assays:
[1] = system: NCI-H358 non-small cell lung cancer cells; experiment: Inhibition of NCI-H358 cell proliferation (CellTiter-Glo 3D, 7 days); type: cell-based; settings: Homo sapiens, NCI-H358, 168 h, 3D microspheres, read-out: Inhibitory activity against NCI-H358 cell proliferation (IC50)
Procedure: The number of viable cells were detected by CellTiter-Glo 3D® reagent, thereby evaluating the inhibitory effect of compounds on cell proliferation. NCI-H358 non-small cell lung cancer cells (Nanjing cobioer) in the exponential growth phase were digested with trypsin-EDTA, and seeded into 96-well ultra-low attachment microplates at 100 µL per well with a density of 2000 cells/well. The cells were cultured overnight at 37°C with 5% CO2 to form microspheres. The test compounds were serially diluted 5-fold with DMSO to obtain 8 concentration gradient dilutions, then diluted with RPMI-1640 (10% FBS) cell culture medium respectively to obtain compound working solutions (2×). 100 µL per well was added to the cell supernatant, and the culture was continued for 7 days under the conditions of 37°C and 5% CO2. The well plate was removed, and 100 µL of CellTiter-Glo 3D® reagent was added. After lysis at room temperature for 10-30 minutes, 70 µL of the lysate was aspirated and transferred to a white opaque 384-well plate.
The inhibition rate was calculated by the following formula: [formula] Note: The negative control refers to the group without inhibitor, and the blank refers to the group without cells.
The inhibitory activities of some Example compounds and comparative compounds against NCI-H358 cell proliferation are shown in Table 2. Table 2. Inhibitory activity of some Example compounds against NCI-H358 cell proliferation

SOS1 = biological target: T1, SOS1 (Homo sapiens, UniProt Q07889); experiment: biochemical
T1 sequence (Q07889 1-1333): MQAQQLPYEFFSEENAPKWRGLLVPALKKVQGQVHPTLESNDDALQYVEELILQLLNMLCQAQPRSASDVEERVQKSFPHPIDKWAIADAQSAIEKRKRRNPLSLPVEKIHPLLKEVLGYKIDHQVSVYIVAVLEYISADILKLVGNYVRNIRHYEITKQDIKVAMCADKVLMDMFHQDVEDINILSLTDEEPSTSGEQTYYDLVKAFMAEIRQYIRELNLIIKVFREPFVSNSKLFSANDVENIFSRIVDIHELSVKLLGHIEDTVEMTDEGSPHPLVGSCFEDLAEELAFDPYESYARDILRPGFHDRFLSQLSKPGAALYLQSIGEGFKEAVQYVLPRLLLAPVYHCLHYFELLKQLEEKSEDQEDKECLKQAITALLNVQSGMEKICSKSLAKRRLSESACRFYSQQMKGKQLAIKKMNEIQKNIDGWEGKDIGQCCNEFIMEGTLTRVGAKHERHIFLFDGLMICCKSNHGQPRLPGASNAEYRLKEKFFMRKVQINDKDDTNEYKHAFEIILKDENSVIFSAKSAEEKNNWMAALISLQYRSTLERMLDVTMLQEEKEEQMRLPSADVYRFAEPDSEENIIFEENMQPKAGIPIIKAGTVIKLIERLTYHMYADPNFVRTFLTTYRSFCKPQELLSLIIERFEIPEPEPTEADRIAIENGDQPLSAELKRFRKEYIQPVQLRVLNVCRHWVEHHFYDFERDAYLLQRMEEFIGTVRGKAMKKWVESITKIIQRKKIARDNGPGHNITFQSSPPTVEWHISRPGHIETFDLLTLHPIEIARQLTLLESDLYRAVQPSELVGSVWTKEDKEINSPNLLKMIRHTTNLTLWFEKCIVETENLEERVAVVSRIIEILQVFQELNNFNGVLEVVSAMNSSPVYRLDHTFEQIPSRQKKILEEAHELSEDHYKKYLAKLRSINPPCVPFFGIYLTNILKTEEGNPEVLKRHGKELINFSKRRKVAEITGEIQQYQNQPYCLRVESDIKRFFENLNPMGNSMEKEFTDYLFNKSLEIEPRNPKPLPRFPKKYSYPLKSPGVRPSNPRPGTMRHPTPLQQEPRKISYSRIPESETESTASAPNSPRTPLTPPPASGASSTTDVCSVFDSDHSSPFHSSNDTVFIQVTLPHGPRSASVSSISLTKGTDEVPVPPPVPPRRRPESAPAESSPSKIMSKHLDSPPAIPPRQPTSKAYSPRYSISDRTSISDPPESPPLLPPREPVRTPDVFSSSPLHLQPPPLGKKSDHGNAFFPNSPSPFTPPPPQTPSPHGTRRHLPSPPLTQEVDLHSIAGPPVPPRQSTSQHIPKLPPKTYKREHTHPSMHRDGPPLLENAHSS

[2] = Rat liver microsomal metabolic stability; type: in vitro ADME; settings: rat liver microsomes; for half-life at 1 µM: NADPH, 37°C; for CLint scaled at 1 µM: calculated from T1/2, fu defaulted to 1, read-out: CL(liver)
Source text: Metabolic stability affects the clearance rate, half-life, and oral bioavailability of compounds in the body, and is one of the most important ADME drug-like properties of compounds. Hepatocyte microsomal stability assay is a commonly used method for studying metabolic stability. In the present disclosure, rat liver microsomes are used to determine and investigate the metabolic stability of compounds.
Preparation of compound stock solution: an appropriate amount of the test compound and testosterone was taken, and a 1 mM stock solution was prepared with DMSO, which was stored in a refrigerator at 4°C.
Preparation of compound working solution: The 1 mM compound stock solution was taken respectively, and then diluted to 100 µM with acetonitrile-water (v:v = 1:1) to obtain the working solution.
Preparation of NADPH working solution: an appropriate amount of NADPH was weighed and dissolved in 16 mM MgCl2 to prepare a NADPH working solution with a concentration of 4.0 mM.
Preparation of rat liver microsome working solution: an appropriate amount of rat liver microsomes was taken and diluted with PBS to obtain a liver microsome working solution with a concentration of 1 mg/mL.
In the incubation system, 48 µL of PBS, 100 µL of rat liver microsome working solution, and 2 µL of the test compound working solution were sequentially added and mixed well. After pre-incubation at 37°C for 5 min, 50 µL of NADPH was added to initiate the reaction. After incubation for the corresponding time points, an appropriate amount of ice-cold acetonitrile containing an internal standard was added to terminate the reaction. The mixture was vortexed to mix well, centrifuged, and the supernatant was collected. The supernatant was injected into LC-MS/MS for detection of the residual metabolic amount of the compound.
Softwares of Excel, etc. were used for data processing according to the following formula. Ct = C0 •e^(−ke •t) [formula] when Ct = (1)/(2)C0 [formula] , T1/2 = (Ln2)/(ke) = (0.693)/(ke) [formula] CLint(mic) = (0.693)/(In vitro T1/2)•(1)/(mg/mL microsomal protein in reaction system) [formula] CLint(liver) = CLint(mic) •(mg microsomes)/(g liver)•(g liver)/(kg body weight) [formula] CL(liver) = (CLint(liver)×fu×Qh)/(CLint(liver)×fu+Qh) [formula] fu (unbound fraction in blood) was defaulted to be 1.

Structure (SMILES): Cc1c([C@@H](C)Nc2nnc(N3CCN(C(C)C)CC3)c3cc(=O)n(C4(C)CC4)cc23)cccc1C(F)(F)F [Example 91, (R)-1-(4-isopropylpiperazin-1-yl)-4-((1-(2-methyl-3-(trifluoromethyl)phenyl)ethyl)amino)-6-(1-methylcyclopropyl) pyrido[3,4-d]pyridazin-7(6H)-one]
- IC50 [1]: 38.5 nM
- IC50 (SOS1): 5.7 nM
- half-life at 1 µM [2]: 2.52 h
- CLint scaled at 1 µM [2]: 12.7 mL/min/kg

Structure (SMILES): CCNc1nnc(N[C@H](C)c2cccc(C(F)(F)F)c2C)c2cn(C3(C)CC3)c(=O)cc12 [Example 97, (R)-1-(ethylamino)-4-((1-(2-methyl-3-(trifluoromethyl)phenyl)ethyl)amino)-6-(1-methylcyclopropyl) pyrido[3,4-d]pyridazin-7(6H)-one]
- IC50 [1]: 36.8 nM
- IC50 (SOS1): 5.1 nM
- half-life at 1 µM [2]: 1.75 h
- CLint scaled at 1 µM [2]: 16.7 mL/min/kg

Structure (SMILES): CCN1CCN(c2nnc(N[C@H](C)c3cccc(C(F)(F)F)c3C)c3cn(C4(C)CC4)c(=O)cc23)CC1 [Example 104, (R)-1-(4-ethylpiperazin-1-yl)-4-((1-(2-methyl-3-(trifluoromethyl)phenyl)ethyl)amino)-6-(1-methylcyclopropyl) pyrido[3,4-d]pyridazin-7(6H)-one]
- IC50 [1]: 29.7 nM
- IC50 (SOS1): 7.5 nM
- half-life at 1 µM [2]: 2.6 h
- CLint scaled at 1 µM [2]: 12.4 mL/min/kg

Structure (SMILES): C[C@@H](Nc1nnc(N2CCN(CC3CC3)CC2)c2cc(=O)n(C3(C)CC3)cc12)c1cccc(C(F)F)c1F [Example 219, (R)-1-(4-(cyclopropylmethyl)piperazin-1-yl)-4-((1-(3-(difluoromethyl)-2-fluorophenyl)ethyl)amino)-6-(1-methylcyclopropyl) pyrido[3,4-d]pyridazin-7(6H)-one]
- IC50 [1]: 25 nM
- IC50 (SOS1): 4.7 nM
- half-life at 1 µM [2]: 2.8 h
- CLint scaled at 1 µM [2]: 11.7 mL/min/kg

Structure (SMILES): CC(C)N1CCN(c2nnc(N[C@H](C)c3cccc(C(F)F)c3F)c3cn(C4CCC4)c(=O)cc23)CC1 [Example 113, (R)-6-cyclobutyl-4-((1-(3-(difluoromethyl)-2-fluorophenyl)ethyl)amino)-1-(4-isopropylpiperazin-1-yl)pyrido[3,4-d]pyridazin-7(6H)-one]
- IC50 [1]: 24.2 nM
- IC50 (SOS1): 4.5 nM
- half-life at 1 µM [2]: 2.25 h
- CLint scaled at 1 µM [2]: 13.9 mL/min/kg

Structure (SMILES): C[C@@H](Nc1nnc(N2CCN(C(C)(C)C)CC2)c2cc(=O)n(C3CC(F)(F)C3)cc12)c1cccc(C(F)F)c1F [Example 108, (R)-6-(3,3-difluorocyclobutyl)-4-((1-(3-(difluoromethyl)-2-fluorophenyl)ethyl)amino)-1-(4-(tert-butyl)piperazin-1-yl)pyrido[3,4-d]pyridazin-7(6H)-one]
- IC50 [1]: 27 nM
- IC50 (SOS1): 5.5 nM
- half-life at 1 µM [2]: 2.23 h
- CLint scaled at 1 µM [2]: 13.9 mL/min/kg

Structure (SMILES): C[C@@H](Nc1nnc(N2CCN(C3CCC3)CC2)c2cc(=O)n(C3(C)CC3)cc12)c1cccc(C(F)F)c1F [Example 220, (R)-1-(4-cyclobutylpiperazin-1-yl)-4-((1-(3-(difluoromethyl)-2-fluorophenyl)ethyl)amino)-6-(1-methylcyclopropyl) pyrido[3,4-d]pyridazin-7(6H)-one]
- IC50 [1]: 56.7 nM
- IC50 (SOS1): 4 nM
- half-life at 1 µM [2]: 1.34 h
- CLint scaled at 1 µM [2]: 19.9 mL/min/kg

Structure (SMILES): C[C@@H](Nc1nnc(N2CCN(C3CCCC3)CC2)c2cc(=O)n(C3(C)CC3)cc12)c1cccc(C(F)F)c1F [Example 221, (R)-1-(4-cyclopentylpiperazin-1-yl)-4-((1-(3-(difluoromethyl)-2-fluorophenyl)ethyl)amino)-6-(1-methylcyclopropyl) pyrido[3,4-d]pyridazin-7(6H)-one]
- IC50 [1]: 53.6 nM
- IC50 (SOS1): 5 nM
- half-life at 1 µM [2]: 1.12 h
- CLint scaled at 1 µM [2]: 22.2 mL/min/kg

Structure (SMILES): C[C@@H](Nc1nnc(N2CCN(C)CC2)c2cc(=O)n(C3CC(F)(F)C3)cc12)c1cccc(C(F)F)c1F [Example 90, (R)-6-(3,3-difluorocyclobutyl)-4-((1-(3-(difluoromethyl)-2-fluorophenyl)ethyl)amino)-1-(4-methylpiperazin-1-yl)pyrido[3,4-d]pyridazin-7(6H)-one]
- IC50 [1]: 49.8 nM
- IC50 (SOS1): 4.2 nM
- half-life at 1 µM [2]: 2.32 h
- CLint scaled at 1 µM [2]: 13.5 mL/min/kg
